In patent USRE47689E1, “Compounds for treating spinal muscular atrophy” (PTC Therapeutics, Inc., priority 2011, dated 2019):

Legend:
[1] = test system: full length and Δ7 SMN2 mRNAs; experiment: Endogenous SMN2 mRNA RT-qPCR splicing assay in cultured cells; assay type: cell-based, human; conditions: GM03813 Type 1 SMA patient fibroblasts, increasing concentrations, 24 hrs
Method: The reverse transcription-quantitative PCR-based (RT-qPCR) assay is used to quantify the levels of the full length and Δ7 SMN2 mRNAs in primary cells and cell lines containing the SMN2 gene treated with a test compound.
Protocol. GM03813 SMA patient cells (5,000 cells/well) are seeded in 200 μL, of cell culture medium (DMEM plus 10% FBS) in 96-well flat-bottom plates and the plate is immediately swirled to ensure proper dispersal of cells, forming an even monolayer of cells. Cells are allowed to attach for at least 4-6 hrs. Test compounds are serially diluted 3.16-fold in 100% DMSO to generate a 7-point concentration curve. A solution of test compound (1 μL, 200× in DMSO) is added to each test well and 1 μL, DMSO is added to each control well. The plate is incubated for 24 hrs in a cell culture incubator (37° C., 5% CO2, 100% relative humidity). The cells are then lysed in Cells-To-Ct lysis buffer and the lysate is stored at −80° C.
SMN2-specific spliced products and GAPDH mRNA are identified using the following primers and probes in Table 5. Primer SMN FL Forward B (SEQ ID NO. 7) hybridizes to a nucleotide sequence in exon 7 (nucleotide 32 to nucleotide 54) and exon 8 (nucleotide 1 to nucleotide 4), primer SMN Δ7 Forward B (SEQ ID NO. 8) hybridizes to a nucleotide sequence in exon 6 (nucleotide 87 to nucleotide 111) and exon 8 (nucleotide 1 to nucleotide 3), primer SMN Reverse B (SEQ ID NO. 9) hybridizes to a nucleotide sequence in exon 8 (nucleotide 39 to nucleotide 62), probe SMN Probe B (SEQ ID NO. 10) hybridizes to a nucleotide sequence in exon 8 (nucleotide 7 to nucleotide 36). These primers and probe hybridize to nucleotide sequences common to human SMN1 and SMN2 mRNAs. Since the SMA patient cells used in Example 3 contain only the SMN2 gene, RT-qPCR can quantify only SMN2 full-length and Δ7 mRNA.
The SMN forward and reverse primers are used at final concentrations of 0.4 μM. The SMN probe is used at a final concentration of 0.15 μM. GAPDH primers are used at final concentrations of 0.1 μM and the probe at 0.075 μM. TaqMan gene expression assays were conducted at 20× concentrations with the GAPDH primers and Vic labeled probe provided as a 20× mixture. The One-Step RT-PCR kit was used as the Real-Time PCR Mix. […]
The increase of SMN2 FL and decrease in SMN2 Δ7 mRNAs relative to those in cells treated with vehicle control are determined from real-time PCR data using a modified ΔΔCt method (as described in Livak and Schmittgen, Methods, 2001, 25:402-8). The amplification efficiency E is calculated from the slope of the amplification curve for SMN2 FL, SMN2 Δ7, and GAPDH individually. The abundances of SMN2 FL, SMN2 Δ7, and GAPDH are then calculated as (1+E)^−Ct, where Ct is the threshold value for each amplicon. […]

[2] = test system: full length and Δ7 SMN2 mRNAs; experiment: Endogenous SMN2 mRNA end-point semi-quantitative RT-PCR splicing assay in animal tissues; assay type: in vivo, mouse; conditions: C/C-allele SMA mice, brain and muscle, oral gavage twice per day for 10 days, agarose gel
Method: The endpoint reverse transcription-PCR (RT-PCR) splicing assay is used to quantify the levels of the full length and Δ7 SMN2 mRNAs in tissues from mice treated with test compound.
Protocol. C/C-allele SMA mice are treated by oral gavage two times per day for 10 days with test compounds in 0.5% HPMC and 0.1% Tween-80. Tissue samples are collected and snap frozen for RNA purification.
Tissue samples (20-40 mg) are homogenized in QIAzol Lysis Reagent for 2 minutes at 20 Hz in the TissueLyser II using one stainless steel bead. After addition of chloroform, the homogenate is separated into aqueous and organic phases by centrifugation. RNA partitioned to the upper, aqueous phase is extracted and ethanol is added to provide appropriate binding conditions. The sample is then applied to the RNeasy spin column from the RNeasy Mini Kit, where total RNA binds to the membrane. The RNA is eluted in RNase-free water then stored at −20° C.
SMN2 spliced products are identified using the following amplification primers in Table 8. These primers hybridize to a nucleotide sequence in exon 6 (SMN Forward D, SEQ ID NO. 13) (nucleotide 22 to nucleotide 46) and exon 8 (SMN Reverse C, SEQ ID NO. 12) common to human SMN1 and SMN2 mRNAs.
To synthesize cDNA, combine 1 μL of RNA solution (25-50 ng), 4 μL of 5× iScript reaction mix, 1 μL of reverse transcriptase, and 10 μL of water are combined and incubates 25° C. for 5 min followed by 42° C. for 30 min followed by 85° C. for 5 min. cDNA solution is stored at −20° C.
To perform endpoint PCR, 5 μL of cDNA, 0.2 μL of 100 μM forward primer, 0.2 μL of 100 μM reverse primer, and 22.5 μL of polymerase super mix are combined in a 96 well semiskirted PCR plate. PCR is carried out at the following temperatures for indicated time: Step 1: 94° C. (2 min), Step 2: 94° C. (30 sec), Step 3: 55° C. (30 sec), Step 4: 68° C. (1 min), then repeat Steps 2 to 4 for a total of 33 cycles, then hold at 4° C.
10 μL of each PCR sample is electrophoretically separated on a 2% agarose E-gel for 14 minutes, stained with ds DNA staining reagents (e.g., ethidium bromide) and visualized using a gel imager.

| SMILES | SMN2 FL mRNA relative to vehicle [1] | SMN2 Δ7 mRNA relative to vehicle [1] | SMN2 FL mRNA [2] | SMN2 Δ7 mRNA [2] |
| --- | --- | --- | --- | --- |
| CCN1CCN(c2ccc3cc(-c4cn5cc(C)nc(C)c5n4)c(=O)oc3c2)C[C@@H]1C [Cpd 626, 3-(6,8-dimethylimidazo[1,2-a]pyrazin-2-yl)-7-[(3S)-4-ethyl-3-methylpiperazin-1-yl]-2H-chromen-2-one] | progressively more SMN2 FL mRNA | less SMN2 Δ7 mRNA | progressively more SMN2 FL mRNA | less SMN2 Δ7 mRNA |
| CC(C)NCCc1ccc2cc(-c3nc4c(Cl)cccc4s3)c(=O)oc2c1 [Cpd 35, 3-(4-chloro-1,3-benzothiazol-2-yl)-7-[2-(propan-2-ylamino)ethyl]-2H-chromen-2-one] | progressively more SMN2 FL mRNA | less SMN2 Δ7 mRNA | progressively more SMN2 FL mRNA | less SMN2 Δ7 mRNA |
